Assay [1] concerns UPR effectors (PERK-ATF4 arm, IRE-1/Xbp1). In words: qRT-PCR of UPR effector expression levels in ZIKV-infected embryonic mouse brains. The format is in vivo. The text has this:
(§1) To test the efficacy of Salubrinal and ISRIB (PERK inhibitors) in decreasing the expression levels of UPR effectors after ZIKV infection we intracerebroventricularly injected ZIKV+Salubrinal (or ISRIB) in E12.5 mouse cortices and collected brains at E18.5. These samples were stored in Trizol (Invitrogen) and RNA was extracted according to manufacturer instructions. RNA was then retro-transcribed and cDNA was used to perform qRT-PCR to quantify ZIKV and UPR effectors levels in each sample. […] The expression levels of several PERK pathway effectors were analyzed: mATF4 (FIG. 6B), mATF5 (FIG. 6C), mCHAC1 (FIG. 6D). […] (Kruskal-Wallis test, *p<0.05, ** p<0.005).
(§2) To test the efficacy of Resveratrol (IRE1a inhibitor) in decreasing the expression levels of UPR effectors after ZIKV infection we intracerebroventricularly injected ZIKV+Resveratrol in E12.5 mouse cortices and collected brains at E18.5. These samples were stored in Trizol (Invitrogen) and RNA was extracted according to manufacturer instructions. RNA was then retro-transcribed and cDNA was used to perform qRT-PCR to quantify ZIKV and UPR effectors levels in each sample. […] The expression levels of several PERK pathway effectors were analyzed: mATF4 (FIG. 7B), mATF3 (FIG. 7C), mXbp1 spliced/unspliced and mXbp1 tot (FIG. 7D), mChop (FIG. 7E).
Total RNA was obtained from micro-dissected embryonic mouse brains, and neuronal progenitors seeded in 6 well-plate culture dishes after application of Trizol according to the manufacturer's protocol (Ambion-Life Technologies, 15596018).
The quantity and quality of RNA were assessed by NanoDrop 1000 (Nano-Drop Technologies) before cDNA synthesis by SuperScript III reverse transcriptase (Invitrogen), as used according to the manufacturer's instructions. The resulting cDNA was used for quantitative PCR, using Faststart Universal SYBR Green Master (Roche) in an Applied Biosystem 7900HT Fast Real-Time PCR detection system (Applied Biosystems, Foster city, USA). The following genes of interest (GOI) were normalized to the reference genes β-actin, Glyceraldehyde-3-Phosphate dehydrogenase (GAPDH), hypoxanthine phosphoribosyltransferase 1 (HPRT1), and 36b4 ribosomal protein (36b4). Tested genes were GAPDH, HPRT1, 36B4, ACTIN, ZIKA, Atf4, Atf3, Atf5, Chac1, Chop, Sesn2, Tbr2, Neurod6, Tubb3, hPDI, Slc7a3, MX1, TLR3, HRD1, OCT4, NESTIN, PAX6, SOX1 and mPDI.
(Quantitative PCR measures a nucleic acid by following its amplification.)

Assay [2] has as its system ZIKV. In words: ZIKV-induced microcephaly and apoptosis after intracerebroventricular injection in mouse embryos (E12.5, analysed E18.5). The format is in vivo. As to conditions: for ZIKV-induced microcephaly / microcephalic phenotype: injected with ZIKV ICV at E12.5, E18.5 brains, vs vehicle.
Assay [3] has as its system ZIKV. The assay is described as follows: qRT-PCR quantification of ZIKV copies in ICV-injected embryonic mouse brains. The format is in vivo. As to conditions: for number of ZIKV copies: ICV co-injection with ZIKV at E12.5, brains at E18.5, vs ZIKV+DMSO, Kruskal-Wallis test.
Source text: as §1, §2
The number of Zika particles in the samples analyzed by qRT-PCR (see above) was calculated as previously described (Lanciotti et al, 2008). Briefly, a standard curve was created by performing serial dilutions of a plasmid containing 76-bp long sequence from the Zika genome (from nt 1,086 to 1,162; GCF_000882815.3, as indicated in Nature Neurosciences (2018) Gladwyn et al.) and querying these dilutions by qRT-PCR analysis.
This standard curve allows the conversion of Cp of samples queried for Zika virus (as described above) into N^o of Zika copies/a L. We used the following formula to link this quantification to the amount of RNA retrotranscribed for the analysis of each sample: […]
Finally, the N^o of copies/μg RNA was divided for the relative concentration of each sample analyzed by qRT-PCR (since for each analyzed gene in this study we performed a relative quantification compared to the controls of the same experiment). The relative concentration of each sample is automatically calculated by the LightCycler480 and its accompanying software.

The subject of assay [4] is ZIKV. In words: Intraplacental (IPL) ZIKV injection in pregnant NMRI mice, cortical defects at E18.5. The format is in vivo, mouse. The following applies: intraplacental ZIKV at E12.5, co-injection.
Assay [5] has as its system ZIKV. The assay is described as follows: Neurogenic balance after intracerebroventricular ZIKV injection and in utero GFP electroporation of mouse embryos. The format is in vivo. As to conditions: co-administered with ZIKV ICV at E12.5, second injection at electroporation; E14.5; vs Mock-DMSO and Mock-PERKi. On the procedure:
To test whether the deregulation of UPR induced by ZIKV-infection results in the impairment of this neurogenic balance, we performed ICV injection of ZIKV in E12.5 mouse brains, followed by in utero electroporation of GFP-expressing plasmids one day later to fate-map APs at E14.5 (APs, immature IPs and IPs, neurons) (FIGS. 3A-B). The phenotype of the “direct progeny” of targeted APs was then assessed by immunohistochemistry (FIGS. 3B-D). In order to characterize the fate of GFP+ cells, we subdivided them into APs (Sox2+, Tbr2− or Tbr2−, Tbr1−), immature IPs (Sox2+, Tbr2+ or Tbr2+, Tbr1−), IPs (Sox2−, Tbr2+ or Tbr2+, Tbr1+), or neurons (Sox2−, Tbr2− or Tbr2−, Tbr1+).
To assess if ZIKV directly impacts the neurogenic balance through UPR deregulation in GFP labeled APs, we co-injected GSK2656157 (a PERK inhibitor, named PERKi) with ZIKV into the lateral ventricles of E12.5 embryos and repeated a second PERKi injection at the time of electroporation.
Embryonic (E) 14.5, E16.5 and E18.5 mouse brains were dissected in 0.1M phosphate-buffered saline pH7.4 (PBS), and were fixed in 4% paraformaldehyde (PFA in PBS) for one hour at room temperature, whereas human neural stem cells (hNSCs) were fixed in 4% PFA at 4° C. for 10 minutes. […]

Setting [6] is: high doses, ICV co-injection with ZIKV at E12.5, brains at E18.5, vs ZIKV+DMSO.
Where [7] appears, read: ZIKV ICV at E12.5, E18.5, compared to vehicle treatment.
Setting [8] is: single injection of 50M at time of infection (E12.5), E18.5.

From patent publication US20200268753A1, “PERK AND IRE-1A INHIBITORS AGAINST NEURODEVELOPMENTAL DISORDERS” (priority 2017, published 2020) come the findings set out here.

In the case of `Cc1cc(=O)oc2c(C=O)c(O)ccc12` [4μ8C], the “activation of the PERK-ATF4 UPR arm” value in assay [1] (ZIKV-infected mouse brains) is recorded as “prevented activation”. The “ZIKV-induced microcephaly / microcephalic phenotype” value in the assay on ZIKV [2] is listed as “rescued the microcephalic phenotype”.
On to `O=C(COc1ccc(Cl)cc1)NC1CCC(NC(=O)COc2ccc(Cl)cc2)CC1` (centres unmarked) [ISRIB], for which, in assay [1] (setting [6]), the mATF4 expression level result is “marked decrease”, the mATF5 expression level entry is “marked decrease” and the mCHAC1 expression level entry was “marked decrease”. In addition, in the assay on ZIKV [3], the “number of ZIKV copies” value is on record as “unaffected compared to controls”.
In the case of `Cc1cccc(CC(=O)N2CCc3c2ccc(-c2cn(C)c4ncnc(N)c24)c3F)n1` [PERKi], the “ZIKV-induced cortical defects (cortical thickness, neuronal apoptosis, cytoarchitecture)” value with ZIKV [4] was “rescued”. The “imbalance between direct and indirect neurogenesis (proportions of APs, newborn IPs, IPs and neurons)” value in the assay on ZIKV [5] was “remarkably corrected the imbalance between direct and indirect neurogenesis”. Moreover, in the assay with ZIKV [3] (ZIKV-infected mouse brains treated with PERKi), the ZIKV particles result is “not associated with a reduction”. Besides, in the assay on ZIKV [2] (setting [7]), the brain weight entry was “significant improvement”; the “cortical dimensions (brain width, length)” value is given as “significant improvement”; the “numbers of neurons sitting in different cortical layers” value is on record as “significant improvement”. Besides, the “ZIKV-induced microcephaly / microcephalic phenotype” value in the assay on ZIKV [2] is recorded as “reduced ZIKV-induced microcephaly”. In addition, in the assay with ZIKV [2] (setting [8]), the ER stress result is “decreased” and the “apoptosis (ac-caspase 3)” value was “decreased”.
With `O=C(/C=C/c1ccccc1)NC(NC(=S)Nc1cccc2cccnc12)C(Cl)(Cl)Cl` (centres unmarked) [Salubrinal], in assay [1] (setting [6]), the mATF4 expression level entry is recorded as “marked decrease”, the mATF5 expression level result is “marked decrease” and the mCHAC1 expression level result was “marked decrease”. For the same compound, in the assay with ZIKV [3], the “number of ZIKV copies” value is given as “unaffected compared to controls”.
For `Oc1ccc(C=Cc2cc(O)cc(O)c2)cc1` [Resveratrol], in assay [1] (setting [6]), the mATF3 expression level result is given as “marked decrease”, the mATF4 expression level entry is listed as “marked decrease” and the mChop expression level result was “marked decrease”. In addition, the “number of ZIKV copies” value in the assay on ZIKV [3] is “unaffected compared to controls”.
